Experiments:
in vitro = conditions: human
Description: Selectivity index, ratio of CC50 for mock-infected human MT4 cells to EC50 for HIV1 NL4-3 infected in human MT4 cells

[1] = Cytotoxicity against mock-infected human MT4 cells measured after 5 days by MTT assay; format: cell-based
[2] = tested on: Human immunodeficiency virus 1; assay: Antiviral activity against HIV1 NL4-3 infected in human MT4 cells assessed as inhibition of virus-induced cytopathicity measured 5 days post infection by MTT assay; format: functional, organism-based; conditions: Human immunodeficiency virus 1, NL4-3, MT4, 120 h
[3] = tested on: Human immunodeficiency virus 1; format: functional, organism-based; conditions: Human immunodeficiency virus 1, MT4, 120 h
[4] = target: Human immunodeficiency virus type 1 reverse transcriptase (Human immunodeficiency virus 1, UniProt Q72547, K103N); assay: Inhibition of HIV1 reverse transcriptase K103N mutant RNA-dependent DNA polymerase activity using poly(rA)/oligo(dT)10:1 and [3H]-dTTP substrate
[5] = tested on: Human immunodeficiency virus 1; assay: Antiviral activity against HIV1 containing reverse transcriptase K103N mutant infected in human MT4 cells assessed as inhibition of virus-induced cytopathicity measured 5 days post infection by MTT assay; format: functional, organism-based; conditions: Human immunodeficiency virus 1, MT4, 120 h
[6] = target: Human immunodeficiency virus type 1 reverse transcriptase (Human immunodeficiency virus 1, UniProt Q72547); assay: Inhibition of wild type HIV1 reverse transcriptase RNA-dependent DNA polymerase activity using poly(rA)/oligo(dT)10:1 and [3H]-dTTP substrate
[7] = target: Human immunodeficiency virus type 1 reverse transcriptase (Human immunodeficiency virus 1, UniProt Q72547, L100I); assay: Inhibition of HIV1 reverse transcriptase L100I mutant RNA-dependent DNA polymerase activity using poly(rA)/oligo(dT)10:1 and [3H]-dTTP substrate
[8] = tested on: Human immunodeficiency virus 1; assay: microbe, parasite or virus in culture; conditions: Human immunodeficiency virus 1, MT4, 120 h
Description: Antiviral activity against HIV1 containing reverse transcriptase Y188L mutant infected in human MT4 cells assessed as inhibition of virus-induced cytopathicity measured 5 days post infection by MTT assay

[9] = tested on: Human immunodeficiency virus 1; assay: microbe, parasite or virus in culture; conditions: Human immunodeficiency virus 1, clade C (SM145)
Description: Antiviral activity against HIV1 clade C (SM145) infected in human PBMCs assessed as inhibition of p24 antigen production by ELISA

[10] = tested on: Human immunodeficiency virus 1; assay: Potency index, ratio of EC50 for Efavirenz to EC50 for compound against HIV1 containing reverse transcriptase K103N mutant infected in human MT4 cells assessed as inhibition of virus-induced cytopathicity measured 5 days post infection by MTT assay; format: functional
[11] = tested on: Human immunodeficiency virus 2; assay: Antiviral activity against HIV2 infected in human PBMCs assessed as inhibition of p24 antigen production by ELISA; format: functional, organism-based
[12] = tested on: Human immunodeficiency virus 1; assay: microbe, parasite or virus in culture; conditions: Human immunodeficiency virus 1, clade G (BCF-DIOUM)
Description: Antiviral activity against HIV1 clade G (BCF-DIOUM) infected in human PBMCs assessed as inhibition of p24 antigen production by ELISA

[13] = tested on: Human immunodeficiency virus 1; assay: microbe, parasite or virus in culture; conditions: Human immunodeficiency virus 1, clade C (DJ259)
Description: Antiviral activity against HIV1 clade C (DJ259) infected in human PBMCs assessed as inhibition of p24 antigen production by ELISA

[14] = tested on: Human immunodeficiency virus 1; format: functional, organism-based; conditions: Human immunodeficiency virus 1, IRLL98, MT4, 120 h
[15] = tested on: Human immunodeficiency virus 1; assay: microbe, parasite or virus in culture; conditions: Human immunodeficiency virus 1, clade B (BaL)
Description: Antiviral activity against HIV1 clade B (BaL) infected in human PBMCs assessed as inhibition of p24 antigen production by ELISA

[16] = tested on: Human immunodeficiency virus 1; assay: microbe, parasite or virus in culture; conditions: Human immunodeficiency virus 1, clade D (UG270)
Description: Antiviral activity against HIV1 clade D (UG270) infected in human PBMCs assessed as inhibition of p24 antigen production by ELISA

[17] = tested on: Human immunodeficiency virus 1; assay: microbe, parasite or virus in culture; conditions: Human immunodeficiency virus 1, clade A/E (ID12)
Description: Antiviral activity against HIV1 clade A/E (ID12) infected in human PBMCs assessed as inhibition of p24 antigen production by ELISA

[18] = tested on: Human immunodeficiency virus 1; assay: Antiviral activity against HIV1 NL4-3 infected in human PBMCs assessed as inhibition of p24 antigen production by ELISA; format: functional, organism-based; conditions: Human immunodeficiency virus 1, NL4-3
[19] = tested on: Human immunodeficiency virus 1; assay: microbe, parasite or virus in culture; conditions: Human immunodeficiency virus 1, clade F (BZ162)
Description: Antiviral activity against HIV1 clade F (BZ162) infected in human PBMCs assessed as inhibition of p24 antigen production by ELISA

[20] = tested on: Human immunodeficiency virus 1; assay: microbe, parasite or virus in culture; conditions: Human immunodeficiency virus 1, clade A (UG273)
Description: Antiviral activity against HIV1 clade A (UG273) infected in human PBMCs assessed as inhibition of p24 antigen production by ELISA

SMILES	selectivity ratio (in vitro)	CC50 at 120 h [1] [µM]	EC50 [2] [µM]	EC50 [3] [µM]	IC50 [4] [µM]	EC50 [5] [µM]	IC50 [6] [µM]	IC50 [7] [µM]	EC50 [8] [µM]	also measured
Cc1cc(C)cc(S(=O)(=O)c2c(C(=O)NCc3ccccn3)[nH]c3ccc(Cl)cc23)c1	> 5510	> 11	0.002							
Cc1cc(C)cc(S(=O)(=O)c2c(C(=O)NCc3cccnc3)[nH]c3ccc(Cl)cc23)c1	> 5010	> 11	0.0022	0.0088	0.032	0.0378	0.02	0.008	0.044	
Cc1cc(C)cc(S(=O)(=O)c2c(C(=O)NCc3ccncc3)[nH]c3ccc(Cl)cc23)c1	> 5510	> 11	0.002	0.0022	0.045	0.0088	0.021	0.011	0.022	EC50 [9]: 0.0003 µM; Ratio EC50 [10]: 8; EC50 [11]: > 0.2 µM; EC50 [12]: 0.0017 µM; EC50 [13]: 0.0004 µM; EC50 [14]: 0.001 µM; EC50 [15]: 0.0001 µM; EC50 [16]: 0.0004 µM; EC50 [17]: 0.0006 µM; EC50 [18]: 0.0004 µM; EC50 [19]: 0.0006 µM; EC50 [20]: 0.0006 µM
Cc1cc(C)cc(S(=O)(=O)c2c(C(=O)NCc3ccnc4ccccc34)[nH]c3ccc(Cl)cc23)c1	> 827	> 9.92	0.012							
Cc1cc(C)cc(S(=O)(=O)c2c(C(=O)NCCc3ccccn3)[nH]c3ccc(Cl)cc23)c1	> 5340	> 10.7	0.002							
Cc1cc(C)cc(S(=O)(=O)c2c(C(=O)NCCc3cccnc3)[nH]c3ccc(Cl)cc23)c1	> 5090	> 10.7	0.0021	0.0063	0.162	0.0273	0.04	0.024	0.504	
Cc1cc(C)cc(S(=O)(=O)c2c(C(=O)NCCc3ccncc3)[nH]c3ccc(Cl)cc23)c1	> 5340	> 10.7	0.002							
Cc1cc(C)cc(S(=O)(=O)c2c(C(=O)Nc3ccccc3C#N)[nH]c3ccc(Cl)cc23)c1	> 5390	> 10.8	0.002							
Cc1cc(C)cc(S(=O)(=O)c2c(C(=O)Nc3cccc(C#N)c3)[nH]c3ccc(Cl)cc23)c1	> 4900	> 10.8	0.0022	0.044	> 0.04	0.0198	0.506	0.287	1.39	
Cc1cc(C)cc(S(=O)(=O)c2c(C(=O)Nc3ccc(C#N)cc3)[nH]c3ccc(Cl)cc23)c1	> 980	> 10.8	0.011							
Cc1cc(C)cc(S(=O)(=O)c2c(C(=O)NCc3ccc(C#N)cc3)[nH]c3ccc(Cl)cc23)c1	> 6970	> 10.5	0.0015	0.0321	> 0.01	0.118	> 0.01	> 0.004	> 10.7	
Cc1cc(C)cc(S(=O)(=O)c2c(C(=O)NC(C)C(N)=O)[nH]c3ccc(Cl)cc23)c1 (racemic)	3020	6.04	0.002							
Cc1nnc(C(C)C)n1[C@H]1C[C@H]2CC[C@@H](C1)N2CC[C@H](NC(=O)C1CCC(F)(F)CC1)c1ccccc1 (relative stereo) [MARAVIROC]										EC50 [9]: 0.001 µM; EC50 [12]: 0.001 µM; EC50 [13]: 0.001 µM; EC50 [15]: 0.001 µM; EC50 [16]: 0.001 µM; EC50 [17]: 0.001 µM; EC50 [19]: 0.001 µM; EC50 [20]: 0.001 µM
O=C1Nc2ccc(Cl)cc2[C@@](C#CC2CC2)(C(F)(F)F)O1 [EFAVIRENZ]		> 15.8	0.0063	0.158		0.0693				EC50 [14]: 0.98 µM
Cc1ccnc2c1NC(=O)c1cccnc1N2C1CC1 [NEVIRAPINE]		> 18.8	1.5	> 3.76		> 3.76			> 3.76	EC50 [14]: > 18.9 µM
Cc1cn([C@H]2C[C@H](N=[N+]=[N-])[C@@H](CO)O2)c(=O)[nH]c1=O [ZIDOVUDINE]	> 2400	> 18.7	0.0078	0.0016		0.0156			0.0117	EC50 [14]: 0.0038 µM

Reference: ChEMBL document CHEMBL2163206, “New nitrogen containing substituents at the indole-2-carboxamide yield high potent and broad spectrum indolylarylsulfone HIV-1 non-nucleoside reverse transcriptase inhibitors” (J Med Chem, 2012)
